This passage reports IC50 results from publication doi:10.1101/2025.01.28.635346v1 (bioRxiv, 2025).

The structures appear in SMILES notation. Bridge positions count the residues as written; N and C are the ends. Peptide text beside a SMILES is read from it.

Assay [1] concerns the target T1, integrin αvβ8 (Homo sapiens, UniProt P06756+P26012). The experiment in a line: AlphaLISA competition assay vs LAP, biotinylated αvβ8. It is filed as binding. In general terms: In Alpha technology, singlet oxygen from a donor bead excites a nearby acceptor bead.
Assay [2] has as its target T2, integrin αvβ6 (Homo sapiens, UniProt P06756+P18564). Briefly: AlphaLISA competition assay vs LAP, biotinylated αvβ6. Type of assay: binding.
Assay [3] has as its target T2, integrin αvβ6. The experiment in a line: ELISA competition assay, integrin αvβ6 binding to LAP. For orientation: ELISA stands for enzyme-linked immunosorbent assay.
Assay [4] addresses T1, integrin αvβ8. Briefly: ELISA competition assay, integrin αvβ8 binding to LAP.
Where [5] appears, read: αvβ6 IC50, ELISA competition vs LAP, mean, n ≥ 3.

For orientation: IC50 means the concentration at which inhibition is half-maximal. High values mean weaker potency in that assay, low ones greater potency in that assay. Turning to `CC[C@H](C)[C@H](NC(=O)[C@@H]1CCCN1C(=O)[C@H](C)NC(=O)[C@H](CC(=O)O)NC(=O)CNC(=O)[C@H](CCCNC(=N)N)NC(=O)[C@@H](NC(=O)[C@H](Cc1ccccc1)NC(=O)[C@H](Cc1ccc(O)cc1)NC(=O)[C@@H]1CCC(=O)NCC(=O)NCC(=O)N[C@@H](C)C(=O)NCC(=O)N[C@@H](Cc2c[nH]cn2)C(=O)N[C@@H](C(C)C)C(=O)N2CCC[C@H]2C(=O)N1)C(C)C)C(=O)N[C@@H](CO)C(=O)N[C@@H](Cc1ccccc1)C(=O)N[C@@H](Cc1ccc(O)cc1)C(=O)NCC(=O)O` [lassotide 4] (GGAGHVPEYFVRGDAPISFYG-OH; lactam N-8; C-terminus assumed), the IC50 amounted to 109 nM in assay [1] and 436 nM in assay [2].
`CC[C@H](C)[C@H](NC(=O)[C@@H]1CCCN1C(=O)[C@H](CCSC)NC(=O)[C@H](CC(=O)O)NC(=O)CNC(=O)[C@H](CCCNC(=N)N)NC(=O)[C@@H](NC(=O)[C@H](Cc1ccccc1)NC(=O)[C@H](Cc1ccc(O)cc1)NC(=O)[C@@H]1CCC(=O)NCC(=O)NCC(=O)N[C@@H](C)C(=O)NCC(=O)N[C@@H](Cc2c[nH]cn2)C(=O)N[C@@H](C(C)C)C(=O)N2CCC[C@H]2C(=O)N1)C(C)C)C(=O)N[C@@H](CO)C(=O)N[C@@H](Cc1ccccc1)C(=O)N[C@@H](Cc1ccc(O)cc1)C(=O)NCC(=O)O` [lassotide 5] (GGAGHVPEYFVRGDMPISFYG-OH; lactam N-8; C-terminus assumed): the IC50 was 259 nM in assay [1] and 280 nM in assay [2].
For `CC[C@H](C)[C@H](NC(=O)[C@@H]1CCCN1C(=O)[C@H](Cc1c[nH]cn1)NC(=O)[C@H](CC(=O)O)NC(=O)CNC(=O)[C@H](CCCNC(=N)N)NC(=O)[C@@H](NC(=O)[C@H](Cc1ccccc1)NC(=O)[C@H](Cc1ccc(O)cc1)NC(=O)[C@@H]1CCC(=O)NCC(=O)NCC(=O)N[C@@H](C)C(=O)NCC(=O)N[C@@H](Cc2c[nH]cn2)C(=O)N[C@@H](C(C)C)C(=O)N2CCC[C@H]2C(=O)N1)C(C)C)C(=O)N[C@@H](CO)C(=O)N[C@@H](Cc1ccccc1)C(=O)N[C@@H](Cc1ccc(O)cc1)C(=O)NCC(=O)O` [lassotide 6] (GGAGHVPEYFVRGDHPISFYG-OH; lactam N-8; C-terminus assumed), in that order: 167 nM and 457 nM.
`CC[C@H](C)[C@H](NC(=O)[C@H](CC(C)C)NC(=O)[C@H](CC(=O)O)NC(=O)CNC(=O)[C@H](CCCNC(=N)N)NC(=O)[C@@H](NC(=O)[C@H](Cc1ccccc1)NC(=O)[C@H](Cc1ccc(O)cc1)NC(=O)[C@@H]1CCC(=O)NCC(=O)NCC(=O)N[C@@H](Cc2c[nH]cn2)C(=O)NCC(=O)N[C@@H](Cc2c[nH]cn2)C(=O)N[C@@H](C(C)C)C(=O)N2CCC[C@H]2C(=O)N1)C(C)C)C(=O)N[C@@H](CO)C(=O)N[C@@H](Cc1ccccc1)C(=O)N[C@@H](Cc1ccc(O)cc1)C(=O)NCC(=O)O` [lassotide 31] (GGHGHVPEYFVRGDLISFYG-OH; lactam N-8; C-terminus assumed): the IC50 in assay [3] (setting [5]) stood at 21 nM; in assay [4] it was 27 nM.
With `CC[C@H](C)[C@H](NC(=O)[C@H](CC(C)C)NC(=O)[C@H](CC(=O)O)NC(=O)CNC(=O)[C@H](CCCNC(=N)N)NC(=O)[C@@H](NC(=O)[C@H](Cc1ccccc1)NC(=O)[C@H](Cc1ccc(O)cc1)NC(=O)[C@@H]1CCC(=O)NCC(=O)NCC(=O)N[C@@H](CC(C)C)C(=O)NCC(=O)N[C@@H](Cc2c[nH]cn2)C(=O)N[C@@H](C(C)C)C(=O)N2CCC[C@H]2C(=O)N1)C(C)C)C(=O)N[C@@H](CO)C(=O)N[C@@H](Cc1ccccc1)C(=O)N[C@@H](Cc1ccc(O)cc1)C(=O)NCC(=O)O` [lassotide 32] (GGLGHVPEYFVRGDLISFYG-OH; lactam N-8; C-terminus assumed), the IC50 in assay [3] (setting [5]) is 53 nM; in assay [4], 32 nM.
Taken in the same sequence, the figures for `CC[C@H](C)[C@H](NC(=O)[C@H](CC(C)C)NC(=O)[C@H](CC(=O)O)NC(=O)CNC(=O)[C@H](CCCNC(=N)N)NC(=O)[C@@H](NC(=O)[C@H](Cc1ccccc1)NC(=O)[C@H](Cc1ccc(O)cc1)NC(=O)[C@@H]1CCC(=O)NCC(=O)NCC(=O)N[C@@H]([C@@H](C)O)C(=O)NCC(=O)N[C@@H](Cc2c[nH]cn2)C(=O)N[C@@H](C(C)C)C(=O)N2CCC[C@H]2C(=O)N1)C(C)C)C(=O)N[C@@H](CO)C(=O)N[C@@H](Cc1ccccc1)C(=O)N[C@@H](Cc1ccc(O)cc1)C(=O)NCC(=O)O` [lassotide 34] (GGTGHVPEYFVRGDLISFYG-OH; lactam N-8; C-terminus assumed) were 44 nM and 28 nM.
With `CC(C)C[C@H](NC(=O)[C@H](CC(=O)O)NC(=O)CNC(=O)[C@H](CCCNC(=N)N)NC(=O)[C@@H](NC(=O)[C@H](Cc1ccccc1)NC(=O)[C@H](Cc1ccc(O)cc1)NC(=O)[C@@H]1CCC(=O)NCC(=O)NCC(=O)N[C@@H](CCCNC(=N)N)C(=O)NCC(=O)N[C@@H](CO)C(=O)N[C@@H](C(C)C)C(=O)N2CCC[C@H]2C(=O)N1)C(C)C)C(=O)N[C@@H](CCC(N)=O)C(=O)N[C@@H](CO)C(=O)N[C@@H](Cc1ccccc1)C(=O)N[C@@H](Cc1ccc(O)cc1)C(=O)NCC(=O)O` [lassotide 39] (GGRGSVPEYFVRGDLQSFYG-OH; lactam N-8; C-terminus assumed), the results for the IC50 in assay [3] (setting [5]) and in assay [4] were 3.1 nM and 5.1 nM, respectively.
Taken in the same sequence, the figures for `CC(C)C[C@H](NC(=O)[C@H](CC(=O)O)NC(=O)CNC(=O)[C@H](CCCNC(=N)N)NC(=O)[C@@H](NC(=O)[C@H](Cc1ccccc1)NC(=O)[C@H](Cc1ccc(O)cc1)NC(=O)[C@@H]1CCC(=O)NCC(=O)NCC(=O)N[C@@H](CCCNC(=N)N)C(=O)NCC(=O)N[C@@H](CCC(N)=O)C(=O)N[C@@H](C(C)C)C(=O)N2CCC[C@H]2C(=O)N1)C(C)C)C(=O)N[C@@H](CCC(N)=O)C(=O)N[C@@H](CO)C(=O)N[C@@H](Cc1ccccc1)C(=O)N[C@@H](Cc1ccc(O)cc1)C(=O)NCC(=O)O` [lassotide 40] (GGRGQVPEYFVRGDLQSFYG-OH; lactam N-8; C-terminus assumed) were 2 nM and 2.6 nM.
As for `CC[C@H](C)[C@@H]1NC(=O)[C@H](CO)NC(=O)CNC(=O)[C@H](CCCNC(=N)N)NC(=O)CNC(=O)CNC(=O)CC[C@@H](C(=O)N[C@@H](Cc2ccc(O)cc2)C(=O)N[C@@H](Cc2ccccc2)C(=O)N[C@H](C(=O)N[C@@H](CCCNC(=N)N)C(=O)NCC(=O)N[C@@H](CC(=O)O)C(=O)N[C@@H](CC(C)C)C(=O)N[C@@H](CCC(N)=O)C(=O)N[C@@H](CO)C(=O)N[C@@H](Cc2ccccc2)C(=O)N[C@@H](Cc2ccc(O)cc2)C(=O)NCC(=O)O)C(C)C)NC(=O)[C@@H]2CCCN2C1=O` [lassotide 41] (GGRGSIPEYFVRGDLQSFYG-OH; lactam N-8; C-terminus assumed), the IC50 in assay [3] (setting [5]) was found to be 1.4 nM; in assay [4], 5.8 nM.
Turning to `CC[C@H](C)[C@@H]1NC(=O)[C@H](CCC(N)=O)NC(=O)CNC(=O)[C@H](CCCNC(=N)N)NC(=O)CNC(=O)CNC(=O)CC[C@@H](C(=O)N[C@@H](Cc2ccc(O)cc2)C(=O)N[C@@H](Cc2ccccc2)C(=O)N[C@H](C(=O)N[C@@H](CCCNC(=N)N)C(=O)NCC(=O)N[C@@H](CC(=O)O)C(=O)N[C@@H](CC(C)C)C(=O)N[C@@H](CCC(N)=O)C(=O)N[C@@H](CO)C(=O)N[C@@H](Cc2ccccc2)C(=O)N[C@@H](Cc2ccc(O)cc2)C(=O)NCC(=O)O)C(C)C)NC(=O)[C@@H]2CCCN2C1=O` [lassotide 42] (GGRGQIPEYFVRGDLQSFYG-OH; lactam N-8; C-terminus assumed), the IC50 amounted to 3 nM in assay [3] (setting [5]) and 2.5 nM in assay [4].
For `CC[C@H](C)[C@@H]1NC(=O)[C@H](CO)NC(=O)CNC(=O)[C@H](CCCNC(=N)N)NC(=O)CNC(=O)CNC(=O)CC[C@@H](C(=O)N[C@@H](Cc2ccc(O)cc2)C(=O)N[C@@H](Cc2ccccc2)C(=O)N[C@H](C(=O)N[C@@H](CCCNC(=N)N)C(=O)NCC(=O)N[C@@H](CC(=O)O)C(=O)N[C@@H](CC(C)C)C(=O)N[C@@H](CCC(N)=O)C(=O)N[C@@H](CO)C(=O)N[C@@H](Cc2ccccc2)C(=O)N[C@@H](Cc2ccc(O)cc2)C(=O)N[C@@H](CCCCN)C(=O)O)C(C)C)NC(=O)[C@@H]2CCCN2C1=O` [lassotide 43] (GGRGSIPEYFVRGDLQSFYK-OH; lactam N-8; C-terminus assumed), in that order: 1.2 nM and 5.1 nM.
For `CC(C)C[C@H](NC(=O)[C@H](CC(=O)O)NC(=O)CNC(=O)[C@H](CCCNC(=N)N)NC(=O)[C@H](CCC(N)=O)NC(=O)[C@H](Cc1ccccc1)NC(=O)[C@H](Cc1ccc(O)cc1)NC(=O)[C@@H]1CCC(=O)NCC(=O)NCC(=O)N[C@@H]([C@@H](C)O)C(=O)NCC(=O)N[C@@H](Cc2c[nH]cn2)C(=O)N[C@@H](C(C)C)C(=O)N2CCC[C@H]2C(=O)N1)C(=O)N[C@@H](CCC(N)=O)C(=O)N[C@@H](CO)C(=O)N[C@@H](Cc1ccccc1)C(=O)N[C@@H](Cc1ccc(O)cc1)C(=O)NCC(=O)O` [lassotide 45] (GGTGHVPEYFQRGDLQSFYG-OH; lactam N-8; C-terminus assumed), the IC50 in assay [3] was found to be 0.7 nM; in assay [4], 1 nM.
Turning to `CC[C@H](C)[C@@H]1NC(=O)[C@H](Cc2c[nH]cn2)NC(=O)CNC(=O)[C@H]([C@@H](C)O)NC(=O)CNC(=O)CNC(=O)CC[C@@H](C(=O)N[C@@H](Cc2ccc(O)cc2)C(=O)N[C@@H](Cc2ccccc2)C(=O)N[C@@H](CCC(N)=O)C(=O)N[C@@H](CCCNC(=N)N)C(=O)NCC(=O)N[C@@H](CC(=O)O)C(=O)N[C@@H](CC(C)C)C(=O)N[C@@H](CCC(N)=O)C(=O)N[C@@H](CO)C(=O)N[C@@H](Cc2ccccc2)C(=O)N[C@@H](Cc2ccc(O)cc2)C(=O)NCC(=O)O)NC(=O)[C@@H]2CCCN2C1=O` [lassotide 46] (GGTGHIPEYFQRGDLQSFYG-OH; lactam N-8; C-terminus assumed), the IC50 in assay [3] (setting [5]) stood at 2.1 nM; in assay [4] it was 1.3 nM.
